One test addresses FKBP (Homo sapiens, UniProt P62942). As to the kind of experiment: PPIase Inhibition Assay. The class given is biochemical. Conditions: concentration of inhibitor required for 50% inhibition of enzyme activity; FKBP, substrate Succinyl-Ala-Phe-Pro-Phe-para-nitroanilide; TABLE I. In outline:
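Chymotrypsin-coupled isomerization of Succinyl-Ala-Phe-Pro-Phe-para-nitroanilide by FKBP in ice-cold 25 mM HEPES pH 7.8, 100 mM NaCl, compound in DMSO. A390 followed 90 sec; first-order rate constants give % activity remaining after subtracting uncatalyzed rate; IC50 by linear regression of V-/V+ versus concentration.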

The test system of another test is human T-cells. As to the kind of experiment: Suppression of Human T-Cell Proliferation Assay (PHA-stimulated, [3H]-thymidine incorporation). Format: cell-based. Conditions: concentration inhibiting [3H]-thymidine incorporation of PHA-stimulated T-cells by 50%, 72 hours; TABLE 2; read-out: IC50. A digest of the protocol:
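SRBC-rosette-purified human peripheral T-cells stimulated with PHA-M (40 μg/ml stock) and compound dilutions, in duplicate, for 72 h at 37° C. Proliferation measured by [3H]-thymidine incorporation during the final 6 h, read by liquid scintillation counting.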

For test [1], the system named is graft versus host response. As to the kind of experiment: Mouse Lymph Node Assay for Modulation of Graft versus Host Response. Format: in vivo. Conditions: mice, 100 mg/kg per day intraperitoneal, after 7 days; popliteal lymph nodes, C57 B1/6-injected limb divided by BDF1-injected limb. An excerpt: 4) Graft versus Host Assay
Transfer of parental strain T-cells (the graft) into F1 hybrid animals (the host) major different with respect to gene products of the histocompatibility complex (MHC) causes a GVHR. This reaction results from recognition of host allogeneic MHC gene products by specific clones of graft T-cells.
When given systemically in sufficient numbers, the graft T-cells cause a progressive, generally fatal, wasting syndrome. A local, nonfatal GVHR, marked by enlargement of the draining popliteal lymph nodes, ensues when graft T-cells are administered via the footpad as described by Ford et al., 1970, Transplantation 10:258. The GVHR is regarded as a correlate of allograft rejections where specific T-cells of either host or allograft origin are activated after recognition of allogeneic MHC gene products, leading to an immune inflammatory response which ultimately results in the destruction (rejection) of the allograft.
Mouse Lymph Node Assay for Modulation of Graft versus Host Response […]
After 7 days, the draining popliteal lymph nodes from the hind limbs were dissected out and weighed. The magnitude of the GVHR was expressed as the ratio of the mean weight of lymph nodes from the limb injected with semi-allogeneic C57 B1/6 cells divided by the mean weight of lymph nodes from the limb injected with syngeneic BDF1 cells.

A further test deals with NF-AT. As to the kind of experiment: NF-AT Inhibition Assay Directed β-Galactosidase Expression in FGL-5 cells. The class given is cell-based. Particulars: 50% inhibition of NF-AT directed β-galactosidase activity in FGL-5 cells stimulated with phorbol dibutyrate and ionomycin; TABLE 3. In outline:
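FGL-5 Jurkat cells (3 million cells/ml) carry NF-AT-site-driven lacZ. They were stimulated with phorbol dibutyrate plus ionomycin and incubated with compound 16-18 h at 37 °C, in duplicate wells with matched ethanol or DMSO vehicle controls. β-Galactosidase was read as fluorescence from 4-methylumbelliferyl-β-D-galactoside cleavage, giving percent inhibition.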

Counter-ions that a name gives are not always drawn.

Sequence of FKBP (P62942 whole entry): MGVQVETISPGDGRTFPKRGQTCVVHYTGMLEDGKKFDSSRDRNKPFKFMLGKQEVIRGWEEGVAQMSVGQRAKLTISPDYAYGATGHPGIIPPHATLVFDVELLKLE

For the compound `CC[C@H](C)[C@H](NC(=O)[C@@H]1CCCN1CC(=O)C12CC3CC(CC(C3)C1)C2)C(=O)NCc1ccccc1` [Example 24, L-Isoleucine, N-[1-(2-Adamantan-1-yl-2-Oxoethyl)-L-Prolyl] Benzylamide], the half-inhibitory concentration (IC50) (as a rule, the point on the concentration scale where inhibition reaches its midpoint) at FKBP worked out at 0.06 µM; in the test with human T-cells, 12 µM. The “Lymph Node Weight Ratio” value in test [1] was determined as 1.2.
As to `COc1cc(C(=O)CN2CCC[C@H]2C(=O)NCC2CCCCC2)cc(OC)c1OC` [Example 141, L-Proline, 1-[2-(3,4,5-Trimethoxylphenyl)-2-Oxoethyl] Cyclohexylmethylamide], the IC50 against FKBP was over 5 µM; in the test with human T-cells, 7 µM; in the test with NF-AT, over 33 µM.
For the compound `COc1cc(C(=O)CN2CCC[C@H]2C(=O)NC(c2ccccc2)c2ccccc2)cc(OC)c1OC` [Example 142, L-Proline, 1-[2-(3,4,5-Trimethoxyphenyl)-2-Oxoethyl] Diphenylmethylamide Hydrochloride], the IC50 against FKBP is over 5 µM; with human T-cells, 12 µM; in the test on NF-AT, over 33 µM.
With `COc1cc(C(=O)CN2CCC[C@H]2C(=O)NC(C)(C)C)cc(OC)c1OC` [Example 143, L-Proline, 1-[2-(3,4,5-Trimethoxyphenyl)-2-Oxoethyl] tert-Butylamide Hydrochloride], the IC50 at FKBP was over 5 µM; in the test on human T-cells it was 3 µM; in the test with NF-AT, over 33 µM.
For `COc1cc(C(=O)CN2CCC[C@H]2C(=O)NC(Cc2ccccc2)c2ccccc2)cc(OC)c1OC` (stereo partly drawn) [Example 144, L-Proline, 1-[2-(3,4,5-Trimethoxyphenyl)-2-Oxoethyl] 1,2-DiphenylethylamideHydrochloride], the IC50 against FKBP was over 5 µM; in the test on human T-cells, 19 µM; in the test with NF-AT, over 33 µM.
As for `COc1cc(C(=O)CN2CCC[C@H]2C(=O)NC2CCCCC2)cc(OC)c1OC` [Example 145, L-Proline, 1-[2-(3,4,5-Trimethoxyphenyl)-2-Oxoethyl] Cyclohexyl amide Hydrochloride], the half-maximal inhibitory concentration (IC50) against FKBP was over 5 µM; with human T-cells it was 4 µM; with NF-AT, over 33 µM.
For `COc1cc(C(=O)CN2CCCC[C@H]2C(=O)NCc2ccccc2)cc(OC)c1OC` [Example 146, L-Homoproline, 1-[2-(3,4,5-Trimethoxyphenyl)-2-Oxoethyl] Benzylamide Hydrochloride], the figures for the IC50 at FKBP, in the test on human T-cells and in the test on NF-AT were over 5 µM, over 15 µM and over 15 µM, respectively.
With `COc1cc(C(=O)CN2CCCC[C@H]2C(=O)NCC23CC4CC(CC(C4)C2)C3)cc(OC)c1OC` [Example 147, L-Homoproline, 1-[2-(3,4,5-Trimethoxyphenyl)-2-Oxoethyl] Adamant-1-ylmethylamide Hydrochloride], the IC50 on FKBP is over 5 µM; in the test with human T-cells, 8 µM; in the test with NF-AT, over 15 µM.
On to `COc1cc(C(=O)CN2CCCC[C@H]2C(=O)NCC2CCCO2)cc(OC)c1OC` (stereo partly drawn) [Example 148, L-Homoproline, 1-[2-(3,4,5-Trimethoxyphenyl)-2-Oxoethyl] tetrahydrofurfurylamide], for which the values for the IC50 on FKBP, in the test on human T-cells and with NF-AT were over 5 µM, over 15 µM and over 15 µM, respectively.
For `COc1cc(C(=O)CN2CCCC[C@H]2C(=O)NCCc2ccc(S(N)(=O)=O)cc2)cc(OC)c1OC` [Example 149, L-Homoproline, 1-[2-(3,4,5-Trimethoxyphenyl)-2-Oxoethyl] 2-(4-Sulfamoylphenyl)ethylamide], the IC50 at FKBP was over 5 µM; with human T-cells, over 15 µM; with NF-AT, over 15 µM.
On to `COc1cc(C(=O)CN2CCCC[C@H]2C(=O)N[C@@H](C)c2ccccc2)cc(OC)c1OC` [Example 150, L-Homoproline, 1-[2-(3,4,5-Trimethoxyphenyl)-2-Oxoethyl] (S)-α-methylbenzylamide Hydrochloride], for which the half-maximal inhibitory concentration (IC50) against FKBP was over 5 µM; in the test with human T-cells, over 15 µM; in the test with NF-AT, over 15 µM.
For `COc1cc(C(=O)CN2CCCC[C@H]2C(=O)N[C@H](/C=C/c2ccccc2)CC(C)C)cc(OC)c1OC` [Example 151, L-Homoproline, 1-[2-(3,4,5-Trimethoxyphenyl)-2-Oxoethyl] (1-(S)-[2'-(S)-methylpropyl]-3-phenylprop-2-E-enyl)-amide], the figures for the half-maximal inhibitory concentration (IC50) against FKBP, with human T-cells and in the test on NF-AT were over 5 µM, 4 µM and over 15 µM, respectively.
Turning to `COc1cc(C(=O)CN2CCCC[C@H]2C(=O)N[C@@H](CCc2ccccc2)CC(C)C)cc(OC)c1OC` [Example 152, L-Homoproline, 1-[2-(3,4,5-Trimethoxyphenyl)-2-Oxoethyl] (1-(S)-[2'-(S)-methylpropyl]-3-phenylpropyl)-amide], the IC50 is over 5 µM against FKBP, 8 µM in the test with human T-cells and over 15 µM in the test with NF-AT.
With `COc1cc(C(=O)CN2CCC[C@H]2C(=O)NCCc2ccc(NC(C)=O)cc2)cc(OC)c1OC` [Example 154, L-Proline, 1-[2-(3,4,5-Trimethoxyphenyl)-2-Oxoethyl] 2-(4-(N-Acetyl)aminophenyl)ethylamide], the half-inhibitory concentration (IC50) against FKBP is over 5 µM; with human T-cells, 13 µM; in the test with NF-AT, over 15 µM.
Regarding `COc1cc(C(=O)CN2CCC[C@H]2C(=O)NCCc2ccc(NC(=O)c3ccccc3)cc2)cc(OC)c1OC` [Example 155, L-Proline, 1-[2-(3,4,5-Trimethoxyphenyl)-2-Oxoethyl] 2-(4-(N-Benzoyl)aminophenyl)ethylamide], the concentration for half-maximal inhibition (IC50) on FKBP was over 5 µM; in the test on human T-cells it was 9 µM; with NF-AT, over 15 µM.
For `C=CCOC(=O)Nc1ccc(CCNC(=O)[C@@H]2CCCN2CC(=O)c2cc(OC)c(OC)c(OC)c2)cc1` [Example 156, L-Proline, 1-[2-(3,4,5-Trimethoxyphenyl)-2-Oxoethyl] 2-(4-(N-carboalloxy)aminophenyl)ethylamide] the same measures were over 5 µM, 6 µM and over 15 µM.
Consider `COc1cc(C(=O)CN2CCC[C@H]2C(=O)NCCc2ccc(NC(=O)OCc3ccccc3)cc2)cc(OC)c1OC` [Example 157, L-Proline, 1-[2-(3,4,5-Trimethoxyphenyl)-2-Oxoethyl] 2-(4-(N-Carbobenzyloxy)aminophenyl)ethylamide], for which the 50% inhibitory concentration (IC50) against FKBP is over 5 µM; in the test with human T-cells, 5 µM; in the test on NF-AT it was over 15 µM.
Consider `C=CCOC(=O)Nc1ccc(CCCOC(=O)[C@@H]2CCCCN2CC(=O)c2cc(OC)c(OC)c(OC)c2)cc1` [Example 159, L-Homoproline, 1-[2-(3,4,5-Trimethoxyphenyl)-2-Oxoethyl] 3-(4-(N-Carboallyloxy)aminophenyl)propyl Ester Hydrochloride], for which the values for the IC50 at FKBP, in the test on human T-cells and in the test with NF-AT were over 5 µM, 10 µM and 3 µM, respectively.
In the case of `C=CCOC(=O)Nc1ccc(CCCOC(=O)[C@@H]2CCCN2CC(=O)C23CC4CC(CC(C4)C2)C3)cc1` [Example 160, L-Proline, 1-[2-Adamantan-1-yl-2-Oxoethyl] 3-(4-(N-Carboallyloxy)aminophenyl)propyl Ester Hydrochloride], the results for the IC50 at FKBP, with human T-cells and in the test with NF-AT were over 5 µM, over 15 µM and over 15 µM, respectively.
Turning to `C=CCOC(=O)Nc1ccc(CCCOC(=O)[C@@H]2CCCCN2CC(=O)C23CC4CC(CC(C4)C2)C3)cc1` [Example 161, L-Homoproline, 1-[2-Adamant-1-yl-2-Oxoethyl] 3-(4-(N-Carboallyloxy)aminophenyl)propyl Ester Hydrochloride], the IC50 is over 5 µM against FKBP, 9 µM in the test on human T-cells and over 15 µM with NF-AT.

These data come from US5686424A, “2-oxoethyl derivatives as immunosuppressants” (Miles Inc., priority 1995, dated 1997).
